Reference: ChEMBL document CHEMBL5649169 (ChemMedChem, 2018)

Assays:
[1] = molecular target: RAC-alpha serine/threonine-protein kinase (Homo sapiens) (UniProt P31749)
[2] = molecular target: Annexin A6 (Homo sapiens) (UniProt P08133)
[3] = molecular target: Annexin A7 (Homo sapiens) (UniProt P20073)
[4] = molecular target: Serine/threonine-protein kinase A-Raf (Homo sapiens) (UniProt P10398)
[5] = molecular target: ATP synthase F(1) complex subunit alpha, mitochondrial (Homo sapiens) (UniProt P25705)
ATP synthase F(1) complex subunit alpha, mitochondrial (Homo sapiens), sequence (P25705 whole entry, one chain of several): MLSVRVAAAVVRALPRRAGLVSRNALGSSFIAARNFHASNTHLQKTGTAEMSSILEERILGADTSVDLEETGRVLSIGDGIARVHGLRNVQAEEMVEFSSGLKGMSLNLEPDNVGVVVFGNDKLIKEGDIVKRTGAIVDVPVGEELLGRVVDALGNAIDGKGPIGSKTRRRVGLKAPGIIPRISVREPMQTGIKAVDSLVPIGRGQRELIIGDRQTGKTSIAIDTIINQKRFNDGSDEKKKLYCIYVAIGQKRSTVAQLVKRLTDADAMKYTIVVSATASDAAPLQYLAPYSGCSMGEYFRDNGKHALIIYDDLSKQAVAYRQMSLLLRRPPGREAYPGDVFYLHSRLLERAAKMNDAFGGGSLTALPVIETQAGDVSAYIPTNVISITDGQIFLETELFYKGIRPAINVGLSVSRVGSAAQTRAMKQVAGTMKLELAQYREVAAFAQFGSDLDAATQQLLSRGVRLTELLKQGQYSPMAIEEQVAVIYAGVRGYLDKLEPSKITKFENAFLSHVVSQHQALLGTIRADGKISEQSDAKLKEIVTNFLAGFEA

[6] = molecular target: ATP synthase F(1) complex subunit delta, mitochondrial (Homo sapiens) (UniProt P30049)
Cyclin-A2 (Homo sapiens) = Cyclin-A2 (Homo sapiens) (UniProt P20248)
[7] = molecular target: Cyclin-dependent kinase 5 (Homo sapiens) (UniProt Q00535)
Cyclin-dependent kinase 5 (Homo sapiens), sequence (Q00535 whole entry, looked up, the tested form may be a part): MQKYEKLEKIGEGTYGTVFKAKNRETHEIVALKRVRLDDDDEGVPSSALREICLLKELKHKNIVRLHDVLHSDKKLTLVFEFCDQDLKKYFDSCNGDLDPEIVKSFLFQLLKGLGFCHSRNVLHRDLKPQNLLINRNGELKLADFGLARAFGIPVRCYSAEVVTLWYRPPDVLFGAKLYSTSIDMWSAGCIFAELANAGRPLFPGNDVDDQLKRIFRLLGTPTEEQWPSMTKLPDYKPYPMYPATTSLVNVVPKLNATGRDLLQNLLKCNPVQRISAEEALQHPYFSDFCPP

[8] = molecular target: CDGSH iron-sulfur domain-containing protein 2 (Homo sapiens) (UniProt Q8N5K1)
[9] = molecular target: Chloride intracellular channel protein 1 (Homo sapiens) (UniProt O00299)
[10] = molecular target: Cytochrome c oxidase subunit 5A, mitochondrial (Homo sapiens) (UniProt P20674)
Cytochrome c oxidase subunit 5A, mitochondrial (Homo sapiens), sequence (P20674 whole entry): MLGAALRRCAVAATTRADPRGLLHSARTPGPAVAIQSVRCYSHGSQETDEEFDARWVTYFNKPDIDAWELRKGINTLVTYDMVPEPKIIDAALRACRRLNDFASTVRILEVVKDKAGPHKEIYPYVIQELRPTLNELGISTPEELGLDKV

[11] = molecular target: Carbamoyl-phosphate synthase [ammonia], mitochondrial (Homo sapiens) (UniProt P31327)
[12] = molecular target: ATP-dependent RNA helicase DHX15 (Homo sapiens) (UniProt O43143)
[13] = molecular target: Desmoplakin (Homo sapiens) (UniProt P15924)
[14] = molecular target: Elongation factor 1-gamma (Homo sapiens) (UniProt P26641)
[15] = molecular target: Translation initiation factor eIF2B subunit delta (Homo sapiens) (UniProt Q9UI10)
[16] = molecular target: Eukaryotic initiation factor 4A-I (Homo sapiens) (UniProt P60842)
Eukaryotic initiation factor 4A-I (Homo sapiens), sequence (P60842 whole entry): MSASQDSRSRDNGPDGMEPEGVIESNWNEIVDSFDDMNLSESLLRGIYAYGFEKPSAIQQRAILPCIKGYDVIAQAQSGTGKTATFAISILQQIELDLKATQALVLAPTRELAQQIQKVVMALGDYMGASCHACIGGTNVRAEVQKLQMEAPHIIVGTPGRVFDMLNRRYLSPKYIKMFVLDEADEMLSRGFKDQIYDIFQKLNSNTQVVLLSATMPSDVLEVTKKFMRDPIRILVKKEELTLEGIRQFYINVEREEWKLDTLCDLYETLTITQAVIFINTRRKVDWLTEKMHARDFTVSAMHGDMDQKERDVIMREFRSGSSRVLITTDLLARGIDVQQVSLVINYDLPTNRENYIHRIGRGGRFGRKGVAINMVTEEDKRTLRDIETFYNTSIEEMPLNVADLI

[17] = molecular target: Fanconi anemia group I protein (Homo sapiens) (UniProt Q9NVI1)
[18] = molecular target: Tyrosine-protein kinase BTK (Homo sapiens) (UniProt Q06187)
[19] = molecular target: Histone H1.4 (Homo sapiens) (UniProt P10412)
[20] = molecular target: Heterogeneous nuclear ribonucleoprotein H (Homo sapiens) (UniProt P31943)
Heterogeneous nuclear ribonucleoprotein H (Homo sapiens), sequence (P31943 whole entry): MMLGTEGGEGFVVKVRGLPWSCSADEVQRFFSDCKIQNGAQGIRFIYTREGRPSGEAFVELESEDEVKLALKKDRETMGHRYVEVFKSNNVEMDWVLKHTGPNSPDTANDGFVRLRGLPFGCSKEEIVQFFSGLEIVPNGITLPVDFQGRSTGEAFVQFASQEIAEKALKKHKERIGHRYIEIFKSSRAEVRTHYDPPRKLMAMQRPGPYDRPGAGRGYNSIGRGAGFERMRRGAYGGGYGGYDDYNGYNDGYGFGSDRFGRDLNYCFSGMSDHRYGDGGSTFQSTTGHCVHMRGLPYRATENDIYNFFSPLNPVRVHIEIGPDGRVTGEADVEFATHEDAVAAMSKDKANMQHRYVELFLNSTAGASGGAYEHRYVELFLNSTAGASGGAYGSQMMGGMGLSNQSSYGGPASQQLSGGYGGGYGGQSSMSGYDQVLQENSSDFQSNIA

[21] = molecular target: Dolichyl-diphosphooligosaccharide--protein glycosyltransferase subunit KCP2 (Homo sapiens) (UniProt Q8N6L1)
Dolichyl-diphosphooligosaccharide--protein glycosyltransferase subunit KCP2 (Homo sapiens), sequence (Q8N6L1 whole entry, the tested form may be a part): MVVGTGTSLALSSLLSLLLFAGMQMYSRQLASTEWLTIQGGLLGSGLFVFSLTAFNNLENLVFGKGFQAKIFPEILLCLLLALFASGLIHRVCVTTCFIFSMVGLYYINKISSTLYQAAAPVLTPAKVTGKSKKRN

[22] = molecular target: LIM and SH3 domain protein 1 (Homo sapiens) (UniProt Q14847)
[23] = molecular target: L-lactate dehydrogenase A chain (Homo sapiens) (UniProt P00338)
[24] = molecular target: Leucine-rich repeat flightless-interacting protein 1 (Homo sapiens) (UniProt Q32MZ4)
[25] = molecular target: DNA replication licensing factor MCM5 (Homo sapiens) (UniProt P33992)
[26] = molecular target: Hepatocyte growth factor receptor (Homo sapiens) (UniProt P08581)
Hepatocyte growth factor receptor (Homo sapiens), sequence (P08581 whole entry): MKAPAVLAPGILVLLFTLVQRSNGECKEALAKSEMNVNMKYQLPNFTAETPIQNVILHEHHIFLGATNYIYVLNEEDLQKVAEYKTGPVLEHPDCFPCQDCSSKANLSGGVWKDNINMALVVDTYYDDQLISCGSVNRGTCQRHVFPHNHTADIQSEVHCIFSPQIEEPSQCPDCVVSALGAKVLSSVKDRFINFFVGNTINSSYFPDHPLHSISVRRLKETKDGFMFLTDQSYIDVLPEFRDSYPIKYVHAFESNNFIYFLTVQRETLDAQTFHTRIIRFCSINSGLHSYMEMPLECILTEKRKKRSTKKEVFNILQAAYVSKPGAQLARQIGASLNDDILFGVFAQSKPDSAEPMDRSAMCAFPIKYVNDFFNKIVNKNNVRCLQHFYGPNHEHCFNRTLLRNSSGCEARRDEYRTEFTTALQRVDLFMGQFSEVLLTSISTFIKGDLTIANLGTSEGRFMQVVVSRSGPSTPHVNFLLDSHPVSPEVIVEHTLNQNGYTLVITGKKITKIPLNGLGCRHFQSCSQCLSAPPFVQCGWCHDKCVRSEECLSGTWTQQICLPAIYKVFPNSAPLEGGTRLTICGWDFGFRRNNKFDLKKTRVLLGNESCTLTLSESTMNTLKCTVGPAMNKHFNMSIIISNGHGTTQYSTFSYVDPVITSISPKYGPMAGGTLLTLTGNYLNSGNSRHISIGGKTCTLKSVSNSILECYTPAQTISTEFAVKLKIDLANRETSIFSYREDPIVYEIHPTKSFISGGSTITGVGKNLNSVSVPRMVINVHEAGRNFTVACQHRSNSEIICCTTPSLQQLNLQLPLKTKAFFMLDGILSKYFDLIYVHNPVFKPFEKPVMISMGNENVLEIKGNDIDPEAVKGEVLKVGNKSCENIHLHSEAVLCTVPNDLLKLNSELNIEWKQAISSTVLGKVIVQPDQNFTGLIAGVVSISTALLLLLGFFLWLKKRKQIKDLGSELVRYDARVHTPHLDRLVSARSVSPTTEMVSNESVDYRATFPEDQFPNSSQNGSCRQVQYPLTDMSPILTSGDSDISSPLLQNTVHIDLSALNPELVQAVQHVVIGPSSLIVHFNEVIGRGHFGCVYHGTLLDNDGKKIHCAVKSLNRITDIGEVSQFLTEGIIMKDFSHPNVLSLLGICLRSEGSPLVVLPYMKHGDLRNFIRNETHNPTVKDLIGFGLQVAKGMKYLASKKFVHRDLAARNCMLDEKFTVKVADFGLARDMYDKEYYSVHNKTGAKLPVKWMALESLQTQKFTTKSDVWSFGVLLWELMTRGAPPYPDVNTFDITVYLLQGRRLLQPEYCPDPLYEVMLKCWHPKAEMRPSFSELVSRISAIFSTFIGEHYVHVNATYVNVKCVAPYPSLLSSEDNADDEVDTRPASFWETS

Nestin (Homo sapiens) = Nestin (Homo sapiens) (UniProt P48681)
[27] = molecular target: Prolyl 4-hydroxylase subunit alpha-1 (Homo sapiens) (UniProt P13674)
[28] = molecular target: 5'-AMP-activated protein kinase subunit gamma-1 (Homo sapiens) (UniProt P54619)
[29] = molecular target: 26S proteasome regulatory subunit 4 (Homo sapiens) (UniProt P62191)
[30] = molecular target: Poly(U)-binding-splicing factor PUF60 (Homo sapiens) (UniProt Q9UHX1)
[31] = molecular target: Ras association domain-containing protein 2 (Homo sapiens) (UniProt P50749)
[32] = molecular target: ATP-dependent DNA helicase Q1 (Homo sapiens) (UniProt P46063)
[33] = molecular target: Receptor-interacting serine/threonine-protein kinase 3 (Homo sapiens) (UniProt Q9Y572)
[34] = molecular target: Large ribosomal subunit protein uL22 (Homo sapiens) (UniProt P18621)
[35] = molecular target: Large ribosomal subunit protein eL22 (Homo sapiens) (UniProt P35268)
[36] = molecular target: Dolichyl-diphosphooligosaccharide--protein glycosyltransferase subunit 1 (Homo sapiens) (UniProt P04843)
[37] = molecular target: Small ribosomal subunit protein eS10 (Homo sapiens) (UniProt P46783)
[38] = molecular target: Small ribosomal subunit protein uS13 (Homo sapiens) (UniProt P62269)
[39] = molecular target: High affinity cationic amino acid transporter 1 (Homo sapiens) (UniProt P30825)
[40] = molecular target: Synaptogyrin-2 (Homo sapiens) (UniProt O43760)
Synaptogyrin-2 (Homo sapiens), sequence (O43760 whole entry): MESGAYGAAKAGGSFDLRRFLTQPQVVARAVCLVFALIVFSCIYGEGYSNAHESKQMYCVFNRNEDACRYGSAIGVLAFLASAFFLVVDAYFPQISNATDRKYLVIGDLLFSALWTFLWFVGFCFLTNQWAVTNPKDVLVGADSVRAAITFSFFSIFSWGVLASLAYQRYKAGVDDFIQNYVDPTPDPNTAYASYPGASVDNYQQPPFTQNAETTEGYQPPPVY

[41] = molecular target: DNA topoisomerase 1 (Homo sapiens) (UniProt P11387)
DNA topoisomerase 1 (Homo sapiens), sequence (P11387 whole entry): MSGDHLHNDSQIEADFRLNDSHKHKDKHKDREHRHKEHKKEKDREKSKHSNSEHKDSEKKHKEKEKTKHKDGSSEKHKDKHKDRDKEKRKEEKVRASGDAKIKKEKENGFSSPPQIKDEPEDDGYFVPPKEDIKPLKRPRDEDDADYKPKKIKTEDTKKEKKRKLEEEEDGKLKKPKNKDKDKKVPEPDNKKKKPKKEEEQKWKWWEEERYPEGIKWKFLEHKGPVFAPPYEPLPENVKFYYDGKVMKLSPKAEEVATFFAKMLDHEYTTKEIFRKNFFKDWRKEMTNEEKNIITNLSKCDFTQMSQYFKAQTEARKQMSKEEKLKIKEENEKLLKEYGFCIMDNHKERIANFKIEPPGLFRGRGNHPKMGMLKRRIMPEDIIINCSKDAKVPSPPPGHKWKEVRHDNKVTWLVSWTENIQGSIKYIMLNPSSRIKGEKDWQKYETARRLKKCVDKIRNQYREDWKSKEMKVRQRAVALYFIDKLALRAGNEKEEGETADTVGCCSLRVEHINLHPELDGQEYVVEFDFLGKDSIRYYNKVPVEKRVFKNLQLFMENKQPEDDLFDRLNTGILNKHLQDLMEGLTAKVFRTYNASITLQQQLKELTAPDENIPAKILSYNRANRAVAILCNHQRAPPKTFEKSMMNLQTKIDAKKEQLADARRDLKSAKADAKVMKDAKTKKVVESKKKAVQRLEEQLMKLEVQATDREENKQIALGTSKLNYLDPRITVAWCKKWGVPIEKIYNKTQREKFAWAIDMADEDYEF

[42] = molecular target: Ubiquitin carboxyl-terminal hydrolase 10 (Homo sapiens) (UniProt Q14694)
[43] = molecular target: Exportin-5 (Homo sapiens) (UniProt Q9HAV4)
Also: assay method not described here.

Serine/threonine-protein kinase A-Raf (Homo sapiens), sequence (P10398 whole entry): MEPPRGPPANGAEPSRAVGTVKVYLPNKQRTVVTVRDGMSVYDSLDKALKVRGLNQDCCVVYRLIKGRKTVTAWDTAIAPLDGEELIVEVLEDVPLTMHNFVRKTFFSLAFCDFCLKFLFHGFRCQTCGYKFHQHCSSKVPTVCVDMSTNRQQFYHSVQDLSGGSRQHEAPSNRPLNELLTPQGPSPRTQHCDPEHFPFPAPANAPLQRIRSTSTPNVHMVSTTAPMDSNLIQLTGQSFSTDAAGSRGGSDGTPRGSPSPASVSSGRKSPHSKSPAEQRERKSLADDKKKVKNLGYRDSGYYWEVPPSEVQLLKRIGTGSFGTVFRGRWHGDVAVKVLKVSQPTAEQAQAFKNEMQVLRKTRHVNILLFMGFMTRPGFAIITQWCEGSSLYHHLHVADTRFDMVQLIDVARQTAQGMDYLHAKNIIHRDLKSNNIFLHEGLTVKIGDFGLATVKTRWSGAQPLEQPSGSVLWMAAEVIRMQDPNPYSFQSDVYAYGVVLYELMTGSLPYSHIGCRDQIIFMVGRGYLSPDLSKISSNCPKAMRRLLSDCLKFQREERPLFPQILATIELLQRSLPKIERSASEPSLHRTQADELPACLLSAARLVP

Cc1ccc(C(=O)Nc2cccc(C(F)(F)F)c2)cc1Nc1nc(-c2cccnc2)nc2nn(C)cc12
ED50 [1]: 0.216 µM | ED50 [2]: 0.0326 µM | ED50 [3]: 0.0697 µM | ED50 [4]: 2.15 µM | ED50 [5]: 1.74 µM | ED50 [6]: 97.9 µM | ED50 (Cyclin-A2 (Homo sapiens)): 0.586 µM | ED50 [7]: 17.2 µM | ED50 [8]: 0.0591 µM | ED50 [9]: 20.9 µM | ED50 [10]: 3250 µM | ED50 [11]: 0.188 µM | ED50 [12]: 23 µM | ED50 [13]: 0.288 µM | ED50 [14]: 0.000491 µM | ED50 [15]: 0.308 µM | ED50 [16]: 58.1 µM | ED50 [17]: 2.2 µM | ED50 [18]: 5.75 µM | ED50 [19]: 5.19 µM | ED50 [20]: 13.2 µM | ED50 [21]: 7.59 µM | ED50 [22]: 109 µM | ED50 [23]: 21.8 µM | ED50 [24]: 0.228 µM | ED50 [25]: 1560 µM | ED50 [26]: 523 µM | ED50 (Nestin (Homo sapiens)): 1.3 µM | ED50 [27]: 0.000132 µM | ED50 [28]: 0.0292 µM | ED50 [29]: 0.00477 µM | ED50 [30]: 0.00583 µM | ED50 (Homo sapiens): 0.061 µM | ED50 [31]: 3.43 µM | ED50 [32]: 12.9 µM | ED50 [33]: 6.31 µM | ED50 [34]: 15.8 µM | ED50 [35]: 0.00758 µM | ED50 [36]: 0.0388 µM | ED50 [37]: 0.0425 µM | ED50 [38]: 0.00691 µM | ED50 [39]: 1.68 µM | ED50 [40]: 1.91 µM | ED50 [41]: 0.00653 µM | ED50 [42]: 0.0387 µM | ED50 [43]: 3.69 µM

Cc1ccc(C(=O)Nc2cccc(C(F)(F)F)c2)cc1Nc1nc(-c2cccnc2)nc2c1cnn2C
ED50 [1]: 33.2 µM | ED50 [2]: 9 µM | ED50 [3]: 21.9 µM | ED50 [4]: 13.1 µM | ED50 [5]: 1.48 µM | ED50 [6]: 146 µM | ED50 (Cyclin-A2 (Homo sapiens)): 4.89 µM | ED50 [7]: 5.06 µM | ED50 [8]: 3.1 µM | ED50 [9]: 14.3 µM | ED50 [10]: 3.62 µM | ED50 [11]: 11.8 µM | ED50 [12]: 0.372 µM | ED50 [13]: 22.3 µM | ED50 [14]: 0.0114 µM | ED50 [15]: 9.56 µM | ED50 [16]: 0.0241 µM | ED50 [17]: 13 µM | ED50 [18]: 5.02 µM | ED50 [19]: 62.9 µM | ED50 [20]: 5.86 µM | ED50 [21]: 0.164 µM | ED50 [22]: 0.00467 µM | ED50 [23]: 0.00901 µM | ED50 [24]: 3.51 µM | ED50 [25]: 6.51 µM | ED50 [26]: 1.75 µM | ED50 (Nestin (Homo sapiens)): 0.244 µM | ED50 [27]: 0.511 µM | ED50 [28]: 3.12 µM | ED50 [29]: 91.8 µM | ED50 [30]: 11 µM | ED50 (Homo sapiens): 3.57 µM | ED50 [31]: 0.0164 µM | ED50 [32]: 0.0304 µM | ED50 [33]: 2.75 µM | ED50 [34]: 6.61 µM | ED50 [35]: 784 µM | ED50 [36]: 0.13 µM | ED50 [37]: 0.042 µM | ED50 [38]: 2.79 µM | ED50 [39]: 4.06 µM | ED50 [40]: 44.4 µM | ED50 [41]: 0.0425 µM | ED50 [42]: 4.33 µM | ED50 [43]: 0.0475 µM
